Source: ChEMBL document CHEMBL3885861, “Open TG-GATES”

Species: Rattus norvegicus
Assay: Open TG-GATES - Regimen: Daily Repeat
Type: toxicity, organism-based, Sprague-Dawley
Set-up: regimen Daily Repeat, gender Male, age 6 weeks
Details: in vivo, po, route gavage; for Bas / Eos / Fbg / Hb / Ht / Lym / MCH / MCHC / MCV / Mono / Neu / PT / Plat / RBC / Ret / WBC / APTT: tissue Blood; for KIDNEY_L / KIDNEY_R / KIDNEY_TOTAL: tissue Kidney; for LIVER: tissue Liver; for ALP / AST / BUN / CRE / Ca / Cl / DBIL / GLC / IP / LDH / Na / PL / RALB / TBIL / TC / TG / TP / gamma-GTP: tissue Plasma
[1] = 30 mg/kg, 72 h, dose level Middle, time 3 day
[2] = 30 mg/kg, […], dose level Middle, time 7 day
[3] = 30 mg/kg, […], dose level Middle, time 14 day
[4] = 30 mg/kg, […], dose level Middle, time 28 day
[5] = 100 mg/kg, 72 h, dose level High, time 3 day
[6] = 100 mg/kg, […], dose level High, time 7 day
[7] = 100 mg/kg, […], dose level High, time 14 day
[8] = 100 mg/kg, […], dose level High, time 28 day

CC(=O)N1CCN(c2ccc(OCC3COC(Cn4ccnc4)(c4ccc(Cl)cc4Cl)O3)cc2)CC1 (configuration not stated) [KETOCONAZOLE]
Bas [1]: 0%
Eos [1]: 1%
Fbg [1]: 303.8 mg/dL
Hb [1]: 13.4 g/dL
Ht [1]: 39.7%
Lym [1]: 77.4%
MCH [1]: 21.4 pg
MCHC [1]: 33.8%
MCV [1]: 63.3 fL
Mono [1]: 2.4%
Neu [1]: 18.2%
PT [1]: 16.3 s
Plat [1]: 117.1 x10_4/uL
RBC [1]: 627.6 x10_4/ul
Ret [1]: 5.6%
WBC [1]: 101.1 x10_2/uL
KIDNEY_L [1]: 1 g
KIDNEY_R [1]: 1.1 g
KIDNEY_TOTAL [1]: 2.1 g
LIVER [1]: 10.5 g
ALP [1]: 1639 IU/L
AST [1]: 67.4 IU/L
BUN [1]: 17.8 mg/dL
CRE [1]: 0.1 mg/dL
Ca [1]: 10.8 mg/dL
Cl [1]: 106.4 meq/L
DBIL [1]: 0 mg/dL
GLC [1]: 181.8 mg/dL
IP [1]: 6.7 mg/dL
LDH [1]: 236.6 IU/L
Na [1]: 139.8 meq/L
PL [1]: 141.8 mg/dL
RALB [1]: 3.1 g/dL
TBIL [1]: 0.01 mg/dL
TC [1]: 71 mg/dL
TG [1]: 88.6 mg/dL
TP [1]: 5.7 g/dL
gamma-GTP [1]: 1.2 IU/L
TERMINAL_BW [2]: 265.9 g
TERMINAL_BW [3]: 312.9 g
TERMINAL_BW [4]: 360.4 g
APTT [2]: 21.8 s
Bas [2]: 0%
Eos [2]: 1%
Fbg [2]: 321.6 mg/dL
Hb [2]: 13.5 g/dL
Ht [2]: 39.7%
Lym [2]: 75.8%
MCH [2]: 21.2 pg
MCHC [2]: 34%
MCV [2]: 62.4 fL
Mono [2]: 2.4%
PT [2]: 16 s
Plat [2]: 121.4 x10_4/uL
RBC [2]: 636.6 x10_4/ul
Ret [2]: 5.4%
WBC [2]: 103.7 x10_2/uL
APTT [3]: 21.1 s
Bas [3]: 0%
Eos [3]: 0.8%
Fbg [3]: 291.8 mg/dL
Hb [3]: 13.4 g/dL
Ht [3]: 39.6%
Lym [3]: 76%
MCH [3]: 20.5 pg
MCHC [3]: 33.8%
MCV [3]: 60.7 fL
Mono [3]: 2.4%
Neu [3]: 19.2%
PT [3]: 16.2 s
Plat [3]: 126.1 x10_4/uL
RBC [3]: 652.8 x10_4/ul
Ret [3]: 4.9%
WBC [3]: 115.1 x10_2/uL
APTT [4]: 25 s
Bas [4]: 0%
Eos [4]: 1%
Fbg [4]: 286.6 mg/dL
Hb [4]: 15.2 g/dL
Ht [4]: 43.9%
Lym [4]: 76.8%
MCH [4]: 19.6 pg
MCHC [4]: 34.5%
MCV [4]: 56.9 fL
Mono [4]: 1.6%
PT [4]: 16.9 s
Plat [4]: 105.3 x10_4/uL
RBC [4]: 773.4 x10_4/ul
Ret [4]: 2.6%
WBC [4]: 102.4 x10_2/uL
KIDNEY_L [2]: 1.2 g
KIDNEY_R [2]: 1.2 g
KIDNEY_TOTAL [2]: 2.3 g
KIDNEY_L [3]: 1.3 g
KIDNEY_R [3]: 1.3 g
KIDNEY_TOTAL [3]: 2.6 g
KIDNEY_L [4]: 1.3 g
KIDNEY_R [4]: 1.4 g
KIDNEY_TOTAL [4]: 2.7 g
LIVER [2]: 12.2 g
LIVER [3]: 14.4 g
LIVER [4]: 15.1 g
ALP [2]: 1565.4 IU/L
AST [2]: 70.4 IU/L
BUN [2]: 18.2 mg/dL
CRE [2]: 0.1 mg/dL
Ca [2]: 10.6 mg/dL
Cl [2]: 108.2 meq/L
DBIL [2]: 0 mg/dL
GLC [2]: 176.4 mg/dL
IP [2]: 6.9 mg/dL
LDH [2]: 171.8 IU/L
Na [2]: 142 meq/L
PL [2]: 145 mg/dL
RALB [2]: 3 g/dL
TBIL [2]: 0.004 mg/dL
TC [2]: 70.4 mg/dL
TG [2]: 135.4 mg/dL
TP [2]: 5.7 g/dL
gamma-GTP [2]: 1.6 IU/L
ALP [3]: 1247.8 IU/L
AST [3]: 65.4 IU/L
BUN [3]: 18.2 mg/dL
CRE [3]: 0.1 mg/dL
Ca [3]: 10.4 mg/dL
Cl [3]: 106.8 meq/L
DBIL [3]: 0 mg/dL
GLC [3]: 180.8 mg/dL
IP [3]: 6.6 mg/dL
LDH [3]: 194.8 IU/L
Na [3]: 142.2 meq/L
PL [3]: 140 mg/dL
RALB [3]: 3 g/dL
TBIL [3]: 0.004 mg/dL
TC [3]: 68.6 mg/dL
TG [3]: 134 mg/dL
TP [3]: 5.8 g/dL
gamma-GTP [3]: 1 IU/L
ALP [4]: 1104.2 IU/L
AST [4]: 66.8 IU/L
BUN [4]: 18.4 mg/dL
CRE [4]: 0.2 mg/dL
Ca [4]: 10.4 mg/dL
DBIL [4]: 0 mg/dL
GLC [4]: 179 mg/dL
IP [4]: 4.9 mg/dL
LDH [4]: 155.2 IU/L
Na [4]: 142.4 meq/L
PL [4]: 126 mg/dL
RALB [4]: 3.1 g/dL
TBIL [4]: 0.008 mg/dL
TC [4]: 61.6 mg/dL
TP [4]: 6.1 g/dL
gamma-GTP [4]: 1.2 IU/L
TERMINAL_BW [5]: 230.7 g
APTT [5]: 20.5 s
Bas [5]: 0%
Eos [5]: 0.8%
Fbg [5]: 321 mg/dL
Hb [5]: 13.3 g/dL
Ht [5]: 39.8%
MCH [5]: 20.9 pg
MCHC [5]: 33.5%
MCV [5]: 62.4 fL
Mono [5]: 2.8%
Neu [5]: 16.2%
PT [5]: 16.2 s
Plat [5]: 128.4 x10_4/uL
RBC [5]: 639 x10_4/ul
Ret [5]: 5.2%
WBC [5]: 83.5 x10_2/uL
KIDNEY_L [5]: 1.1 g
KIDNEY_R [5]: 1 g
KIDNEY_TOTAL [5]: 2.1 g
LIVER [5]: 12.1 g
ALP [5]: 1481 IU/L
AST [5]: 63.8 IU/L
BUN [5]: 19.2 mg/dL
CRE [5]: 0.2 mg/dL
Ca [5]: 10.8 mg/dL
Cl [5]: 105.6 meq/L
DBIL [5]: 0 mg/dL
GLC [5]: 179.6 mg/dL
IP [5]: 7 mg/dL
LDH [5]: 261.8 IU/L
Na [5]: 141 meq/L
PL [5]: 133.6 mg/dL
RALB [5]: 3 g/dL
TBIL [5]: 0.004 mg/dL
TC [5]: 72.4 mg/dL
TG [5]: 73.2 mg/dL
TP [5]: 5.8 g/dL
gamma-GTP [5]: 1.6 IU/L
TERMINAL_BW [6]: 256.9 g
TERMINAL_BW [7]: 298.5 g
TERMINAL_BW [8]: 353.3 g
APTT [6]: 20.6 s
Bas [6]: 0%
Eos [6]: 0.4%
Fbg [6]: 302.4 mg/dL
Hb [6]: 12.9 g/dL
Ht [6]: 38.5%
Lym [6]: 79.4%
MCH [6]: 21 pg
MCHC [6]: 33.6%
MCV [6]: 62.6 fL
Mono [6]: 1.2%
Neu [6]: 17.6%
PT [6]: 16.1 s
Plat [6]: 111.5 x10_4/uL
RBC [6]: 616.2 x10_4/ul
Ret [6]: 5.5%
WBC [6]: 106.4 x10_2/uL
APTT [7]: 20.9 s
Bas [7]: 0%
Eos [7]: 0.4%
Fbg [7]: 316 mg/dL
Hb [7]: 13.9 g/dL
Ht [7]: 41.6%
Lym [7]: 72.4%
MCH [7]: 20.3 pg
MCHC [7]: 33.5%
MCV [7]: 60.6 fL
Mono [7]: 1.4%
Neu [7]: 24.6%
PT [7]: 16.3 s
Plat [7]: 122.8 x10_4/uL
RBC [7]: 687.8 x10_4/ul
Ret [7]: 4.5%
WBC [7]: 85.7 x10_2/uL
APTT [8]: 23.2 s
Bas [8]: 0%
Eos [8]: 1.2%
Fbg [8]: 314.2 mg/dL
Hb [8]: 14.5 g/dL
Ht [8]: 42.3%
Lym [8]: 72%
MCH [8]: 19.1 pg
MCHC [8]: 34.2%
MCV [8]: 55.8 fL
Mono [8]: 1.8%
Neu [8]: 24%
PT [8]: 17.1 s
Plat [8]: 109.8 x10_4/uL
RBC [8]: 758.8 x10_4/ul
Ret [8]: 3%
WBC [8]: 86.3 x10_2/uL
KIDNEY_L [6]: 1.2 g
KIDNEY_R [6]: 1.2 g
KIDNEY_TOTAL [6]: 2.4 g
KIDNEY_L [7]: 1.3 g
KIDNEY_R [7]: 1.3 g
KIDNEY_TOTAL [7]: 2.6 g
KIDNEY_L [8]: 1.4 g
KIDNEY_R [8]: 1.4 g
KIDNEY_TOTAL [8]: 2.8 g
LIVER [7]: 15 g
LIVER [8]: 16.1 g
ALP [6]: 1138 IU/L
AST [6]: 64.8 IU/L
BUN [6]: 17.2 mg/dL
CRE [6]: 0.1 mg/dL
Ca [6]: 10.8 mg/dL
Cl [6]: 107.6 meq/L
DBIL [6]: 0 mg/dL
GLC [6]: 189.6 mg/dL
IP [6]: 7 mg/dL
LDH [6]: 203 IU/L
Na [6]: 143.6 meq/L
PL [6]: 119.6 mg/dL
RALB [6]: 2.9 g/dL
TBIL [6]: 0 mg/dL
TC [6]: 62.4 mg/dL
TG [6]: 73.8 mg/dL
TP [6]: 5.8 g/dL
gamma-GTP [6]: 1 IU/L
ALP [7]: 1375.6 IU/L
AST [7]: 67.8 IU/L
BUN [7]: 16.8 mg/dL
CRE [7]: 0.1 mg/dL
Ca [7]: 10.4 mg/dL
Cl [7]: 106 meq/L
DBIL [7]: 0 mg/dL
GLC [7]: 177.8 mg/dL
IP [7]: 6.3 mg/dL
LDH [7]: 194.4 IU/L
Na [7]: 143.8 meq/L
PL [7]: 138.2 mg/dL
RALB [7]: 3.1 g/dL
TBIL [7]: 0.004 mg/dL
TC [7]: 70.4 mg/dL
TG [7]: 114.8 mg/dL
TP [7]: 6 g/dL
gamma-GTP [7]: 1.2 IU/L
ALP [8]: 1014.6 IU/L
AST [8]: 65.8 IU/L
BUN [8]: 16.8 mg/dL
CRE [8]: 0.2 mg/dL
Ca [8]: 10.3 mg/dL
Cl [8]: 106.8 meq/L
DBIL [8]: 0 mg/dL
GLC [8]: 187.6 mg/dL
IP [8]: 5.9 mg/dL
LDH [8]: 154 IU/L
Na [8]: 142.2 meq/L
PL [8]: 111.8 mg/dL
RALB [8]: 3.2 g/dL
TBIL [8]: 0.016 mg/dL
TC [8]: 57 mg/dL
TG [8]: 56.4 mg/dL
TP [8]: 6.1 g/dL
gamma-GTP [8]: 1.6 IU/L
